Source: patent publication US4410516A, “1-N(αHydroxy-ω-aminoalkanoyl) derivatives of 5,3',4'-trideoxy- or 5,3', 4'-trideoxy-6'-N- methyl- or 5, 3', 4',6"-tetradeoxykannamyci B and production thereof” (Zaidan Hojin Biseibutsu Kagaku Kenkyu Kai, priority 1981, dated 1983)
In brackets after ≈: the same amount, converted by molar mass. Where two headings read alike, the source gives them in different places.

Columns and labels:
[1] = tested on: Pseudomonas aeruginosa 21-75; assay: Minimum inhibitory concentration, serial dilution on nutrient agar; type: cell-based; conditions: 2175, 37° C., 18 hours incubation
[2] = tested on: Pseudomonas maltophilia GN907; assay: as above; type: cell-based; conditions: Stenotrophomonas maltophilia, 37° C., 18 hours incubation
[3] = tested on: Shigella flexneri 4b JS11811; assay: as above; type: cell-based; conditions: 4BJS11811, 37° C., 18 hours incubation
Excerpt: (§1) The minimum inhibitory concentration (mcg/ml) of 1-N-[(S)-4-amino-2-hydroxybutyryl]-5,3',4'-trideoxykanamycin B (abbreviated as AHB-trideoxyKMB), 1-N-[(RS)-3-amino-2-hydroxypropionyl]-5,3',4'-trideoxykanamycin B (abbreviated as AHP-trideoxy-KMB) and 1-N-[(S)-4-amino-2-hydroxybutyryl]-5,3',4',6"-tetradeoxykanamycin B (abbreviated as AHB-tetradeoxyKMB) of the formula (II) according to this invention as well as of the new compound 5,3',4',6"-tetradeoxykanamycin B (abbreviated as tetradeoxyKMB) of the formula (III) according to this invention against various microorganisms were determined according to serial dilution method on a nutrient agar medium at 37° C., the estimation being made after 18 hours incubation. For comparison purpose, the minimum inhibitory concentrations of habekacin were also determined in the same manner as stated above.
(§2) The minimum inhibitory concentrations (mcg/ml) of 1-N-[(S)-4-amino-2-hydroxybutyryl]-5,3',4'-trideoxy-6'-N-methylkanamycin B (abbreviated as AHB-trideoxyMKMB), 1-N-[(RS)-3-amino-2-hydroxypropionyl]-5,3',4'-trideoxy-6'-N-methylkanamycin B (abbreviated as AHP-trideoxyMKMB) and 1-N-[(S)-5-amino-2-hydroxyvaleryl]-5,3',4'-trideoxy-6'-N-methylkanamycin B (abbreviated as AHV-trideoxyMKMB) of the formula (IV) according to this invention as well as of the new compound 5,3',4'-trideoxy-6'-N-methylkanamycin B (abbreviated as trideoxyMKMB) of the formula (V) according to this invention against various microorganisms were determined according to serial dilution method on a nutrient agar medium at 37° C., the estimation being made after 18 hours incubation. For comparison purpose, the minimum inhibitory concentrations of 1-N-[(S)-4-amino-2-hydroxybutyryl]-3',4'-dideoxykanamycin B (ie. habekacin) were also determined in the same manner as stated above.

[4] = tested on: Escherichia coli K-12 ML 1630; assay: as above; type: cell-based; conditions: K12ML1630, 37° C., 18 hours incubation
Excerpt: as §1, §2

[5] = tested on: Escherichia coli K-12 C 600R/35; assay: as above; type: cell-based; conditions: K12C600R/35, 37° C., 18 hours incubation
Excerpt: as §1, §2

Shigella sonnei JS11746 = assay: as above; type: cell-based; conditions: 37° C., 18 hours incubation
Excerpt: as §1, §2

[6] = tested on: Escherichia coli K-12 J5R 11-2; assay: as above; type: cell-based; conditions: K12J5R112, 37° C., 18 hours incubation
Excerpt: as §1, §2

[7] = tested on: Micrococcus flavus FDA 16; assay: as above; type: cell-based; conditions: FDA16, 18 h
[8] = tested on: Staphylococcus aureus 209P; assay: as above; type: cell-based; conditions: 37° C., 18 hours incubation
Proteus rettgeri GN311 = assay: as above; type: cell-based; conditions: Providencia rettgeri, 37° C., 18 hours incubation
[9] = tested on: Escherichia coli K-12 LA 290 R55; assay: as above; type: cell-based; conditions: K12LA290R55, 18 h
[10] = tested on: Bacillus subtilis NRRL B-558; assay: as above; type: cell-based; conditions: NRRLB558, 37° C., 18 hours incubation
[11] = tested on: Mycobacterium smegmatis ATCC 607; assay: as above; type: cell-based; conditions: Mycolicibacterium smegmatis, ATCC607; nutrient agar, 37° C., 18 hours incubation; read-out: MIC
[12] = tested on: Escherichia coli K-12 LA 290 R64; assay: as above; type: cell-based; conditions: K12LA290R64, 18 h
Proteus rettgeri GN466 = assay: as above; type: cell-based; conditions: Providencia rettgeri
Escherichia coli W677 = assay: as above; type: cell-based
[13] = tested on: Klebsiella pneumoniae 22 #3038; assay: as above; type: cell-based
[14] = tested on: Pseudomonas aeruginosa K-Ps102; assay: as above; type: cell-based
[15] = tested on: Escherichia coli K-12 ML 1629; assay: as above; type: cell-based; conditions: K12ML1629, nutrient agar, 37° C., 18 hours incubation, read-out: MIC
Serratia marcescens = assay: as above; type: cell-based; conditions: 37° C., 18 hours incubation
Escherichia coli K-12 R5 = assay: as above; type: cell-based; conditions: K12R5, 18 h
[16] = tested on: Pseudomonas aeruginosa GN315; assay: as above; type: cell-based
[17] = tested on: Pseudomonas aeruginosa ROS134/PU21; assay: as above; type: cell-based; conditions: ROS134/PU21, 18 h
[18] = tested on: Klebsiella pneumoniae PCI 602; assay: as above; type: cell-based
Providencia 2991 = assay: as above; type: cell-based; conditions: 37° C., 18 hours incubation
[19] = tested on: Pseudomonas aeruginosa No. 12; assay: as above; type: cell-based
Escherichia coli JR255 = assay: as above; type: cell-based; conditions: JR255, nutrient agar, 37° C., 18 hours incubation, read-out: MIC
[20] = Acute toxicity by intravenous injection in mice; conditions: mouse, in vivo
[21] = tested on: Escherichia coli K-12 R 388; assay: Minimum inhibitory concentration, serial dilution on nutrient agar; type: cell-based; conditions: K12R388, 18 h
[22] = tested on: Pseudomonas aeruginosa B-13; assay: as above; type: cell-based; conditions: B13, 37° C., 18 hours incubation
[23] = GN466, nutrient agar, 37° C., 18 hours incubation, read-out: MIC
[24] = PCI602, nutrient agar, 37° C., 18 hours incubation, read-out: MIC
[25] = W677, nutrient agar, 37° C., 18 hours incubation, read-out: MIC
[26] = KPS102, nutrient agar, 37° C., 18 hours incubation, read-out: MIC
[27] = NO.12, nutrient agar, 37° C., 18 hours incubation, read-out: MIC

SMILES | MIC [1] [mg/L] | MIC [2] [mg/L] | MIC [3] [mg/L] | MIC [4] [mg/L] | MIC [5] [mg/L] | MIC (Shigella sonnei JS11746) [mg/L] | MIC [6] [mg/L] | MIC [7] [mg/L] | MIC [8] [mg/L] | MIC (Proteus rettgeri GN311) [mg/L] | MIC [9] [mg/L] | MIC [10] [mg/L] | MIC [11] [mg/L] | MIC [12] [mg/L] | MIC [15] [mg/L] | MIC (Serratia marcescens) [mg/L] | MIC (Escherichia coli K-12 R5) [mg/L] | MIC [17] [mg/L] | MIC (Providencia 2991) [mg/L] | MIC (Escherichia coli JR255) [mg/L] | also measured
CNC[C@@H]1CC[C@@H](N)[C@@H](O[C@H]2C[C@@H](O[C@H]3O[C@H](CO)[C@@H](O)[C@H](N)[C@H]3O)[C@H](NC(=O)[C@@H](O)CCN)C[C@@H]2N)O1 [AHB-trideoxyMKMB, 1-N-[(S)-4-amino-2-hydroxybutyryl]-5,3',4'-trideoxy-6'-N-methylkanamycin B] | 12.5 (≈ 22.7 µM) | > 100 | 0.78 (≈ 1.42 µM) | 1.56 (≈ 2.83 µM) | 1.56 (≈ 2.83 µM) | 3.13 (≈ 5.68 µM) | 1.56 (≈ 2.83 µM) | 1.56 (≈ 2.83 µM) | < 0.2 | 50 (≈ 90.8 µM) | 1.56 (≈ 2.83 µM) | < 0.2 | < 0.2 | 1.56 (≈ 2.83 µM) | 0.78 (≈ 1.42 µM) | 6.25 (≈ 11.4 µM) | 3.13 (≈ 5.68 µM) | 50 (≈ 90.8 µM) | 12.5 (≈ 22.7 µM) | 0.78 (≈ 1.42 µM) | MIC (Proteus rettgeri GN466; [23]): 6.25 mg/L (≈ 11.4 µM); MIC (Escherichia coli W677; W677, 18 h): 1.56 mg/L (≈ 2.83 µM); MIC ([13]; 18 h): 1.56 mg/L (≈ 2.83 µM); MIC ([14]; KPS102, 18 h): 1.56 mg/L (≈ 2.83 µM); MIC ([16]; GN315, 18 h): 3.13 mg/L (≈ 5.68 µM); MIC [18, 24]: 0.78 mg/L (≈ 1.42 µM); MIC ([19]; NO.12, 18 h): 1.56 mg/L (≈ 2.83 µM); LD50 [20]: 50 to 100 mg/kg; MIC [21]: 0.39 mg/L (≈ 0.708 µM); MIC [22]: 12.5 mg/L (≈ 22.7 µM)
NCC(O)C(=O)N[C@@H]1C[C@H](N)[C@@H](O[C@H]2O[C@H](CN)CC[C@H]2N)C[C@H]1O[C@H]1O[C@H](CO)[C@@H](O)[C@H](N)[C@H]1O (stereo partly drawn) [AHP-trideoxyKMB, 1-N-[(RS)-3-amino-2-hydroxypropionyl]-5,3',4'-trideoxykanamycin B] | 12.5 (≈ 23.9 µM) | > 100 | 6.25 (≈ 12 µM) | 3.13 (≈ 5.99 µM) | 1.56 (≈ 2.99 µM) | 6.25 (≈ 12 µM) | 1.56 (≈ 2.99 µM) | 6.25 (≈ 12 µM) | < 0.2 | 25 (≈ 47.8 µM) | 3.13 (≈ 5.99 µM) | < 0.2 | 0.2 (≈ 0.383 µM) | 1.56 (≈ 2.99 µM) | 3.13 (≈ 5.99 µM) | 25 (≈ 47.8 µM) | 100 (≈ 191 µM) | > 100 | 25 (≈ 47.8 µM) | 1.56 (≈ 2.99 µM) | MIC (Proteus rettgeri GN466; [23]): 3.13 mg/L (≈ 5.99 µM); MIC (Escherichia coli W677; [25]): 1.56 mg/L (≈ 2.99 µM); MIC ([13]; 18 h): 6.25 mg/L (≈ 12 µM); MIC [14, 26]: 3.13 mg/L (≈ 5.99 µM); MIC ([16]; GN315, nutrient agar, 37° C., 18 hours incubation, read-out: MIC): 50 mg/L (≈ 95.7 µM); MIC [18, 24]: 1.56 mg/L (≈ 2.99 µM); MIC [19, 27]: 3.13 mg/L (≈ 5.99 µM); LD50 [20]: 25 to 50 mg/kg; MIC [21]: 1.56 mg/L (≈ 2.99 µM); MIC [22]: 12.5 mg/L (≈ 23.9 µM)
NCC[C@H](O)C(=O)N[C@@H]1C[C@H](N)[C@@H](O[C@H]2O[C@H](CN)CC[C@H]2N)[C@H](O)[C@H]1O[C@H]1O[C@H](CO)[C@@H](O)[C@H](N)[C@H]1O [Habekacin, 1-N-[(S)-4-amino-2-hydroxybutyryl]-3',4'-dideoxykanamycin B, reference compound] | 25 (≈ 45.2 µM) | > 100 | 6.25 (≈ 11.3 µM) | 3.13 (≈ 5.66 µM) | 1.56 (≈ 2.82 µM) | 6.25 (≈ 11.3 µM) | 1.56 (≈ 2.82 µM) | 1.56 (≈ 2.82 µM) | 0.39 (≈ 0.706 µM) | 50 (≈ 90.5 µM) | 6.25 (≈ 11.3 µM) | < 0.2 | 0.39 (≈ 0.706 µM) | 3.13 (≈ 5.66 µM) | 3.13 (≈ 5.66 µM) | 50 (≈ 90.5 µM) | 100 (≈ 181 µM) | > 100 | 50 (≈ 90.5 µM) | 3.13 (≈ 5.66 µM) | MIC (Proteus rettgeri GN466; GN466, 18 h): 12.5 mg/L (≈ 22.6 µM); MIC (Escherichia coli W677; [25]): 3.13 mg/L (≈ 5.66 µM); MIC ([13]; nutrient agar, 37° C., 18 hours incubation, read-out: MIC): 3.13 mg/L (≈ 5.66 µM); MIC [14, 26]: 3.13 mg/L (≈ 5.66 µM); MIC ([16]; GN315, 18 h): 6.25 mg/L (≈ 11.3 µM); MIC ([18]; PCI602, 18 h): 1.56 mg/L (≈ 2.82 µM); MIC [19, 27]: 3.13 mg/L (≈ 5.66 µM); MIC [21]: 1.56 mg/L (≈ 2.82 µM); MIC [22]: 25 mg/L (≈ 45.2 µM)
